# Measured values taken from paper PMC9413440, “An Iterative Approach Guides Discovery of the FabI Inhibitor Fabimycin, a Late-Stage Antibiotic Candidate with In Vivo Efficacy against Drug-Resistant Gram-Negative Infections” (ACS Central Science, 2022).
# Like-named read-outs stand apart in the source and are kept apart here.
# What was measured:
# E. coli MG1655 = test: Selection of resistant mutants, mutant prevention concentration; assay type: cell-based, Escherichia coli; conditions: 32x MIC, 0 colonies
# Procedure: (§1) Selection of resistant mutants
# (§2) Resistant mutants were generated using the large inoculum method. Briefly, S. aureus 29213, E. coli MG1655, and A. baumannii 19606 (~1 x 1010 CFUs) was plated on 100-mm plates (E. coli and A. baumannii) or 150-mm plates (S. aureus) of MH agar containing either 128, 64, or 32 µg/mL fabimycin (for gram-negatives) or 0.125, 0.062, and 0.031 µg/mL fabimycin (for S. aureus). Plates were incubated at 37 °C for 48 h and counted for the presence of colony forming units.
# (§3) Glycerol stocks of selected colonies were made, and resistant colonies confirmed by growing on agar plates containing the same concentration of fabimycin that they were generated at.
# (§4) Sequencing of bacterial fabI
# (§5) The FabI gene was amplified by PCR. Fabimycin-resistant colonies were picked and diluted in 100 µL sterile, nuclease-free H2O. […] A 10 µL portion of PCR reaction mixture was analyzed by agarose gel electrophoresis to confirm the single 1.4-kilobase pair product. […]
# (§6) Candidate drugs were incubated with plasma and parent drug levels were monitored at various time points (generally t=0, 10, 20, 30, and 60 minutes) to determine the drug’s half-life in the presence of the chosen system. […] The supernatant was collected after centrifugation, and the sample analyzed by LC-MS where the percentage of compound remaining is plotted vs time to determine the drug’s half-life. […]
# hERG ion channel = hERG ion channel (Homo sapiens, UniProt Q12809); test: hERG activity
# [1] = test system: K. pneumoniae clinical isolates (n=100); test: MIC50/MIC90, clinical isolate panel; assay type: cell-based; conditions: Klebsiella pneumoniae; K. pneumoniae (n=100) clinical isolates
# From the text: Figure 4 Antimicrobial activity of fabimycin against clinical isolates. (A) The susceptibility of clinical isolates (Gram-negative species and S. aureus) to fabimycin, Debio-1452-NH3, and Debio-1452. MICs performed in biological triplicate. (B) Further exploration of the breadth of fabimycin’s antibacterial activity against diverse clinical isolate panels of K. pneumoniae and A. baumannii, as compared to levofloxacin. MICs performed in biological duplicate.
# (§7) II. Materials and Methods for Biological Experiments
# (§8) S. aureus ATCC 29213 and E. coli MG1655 were obtained from the American Type Culture Collection (ATCC). E. coli BW25113 and E. coli JW5503 were obtained from the Keio Collection. AR-bank strains were obtained from the Centers for Disease Control and Prevention and FDA Antibiotic Resistance Isolate Bank.
# (§9) Antimicrobial susceptibility tests
# (§10) Susceptibility testing was performed in biological triplicate, unless noted otherwise, using the micro-dilution broth method as outlined by the Clinical and Laboratory Standards Institute. Bacteria were cultured with cation-adjusted Mueller Hinton broth (Sigma Aldrich, catalogue number: 90922). […]
# (§11) Error bars represent the standard error of the mean of three biological replicates. All compounds evaluated in biological assays were ≥95% pure.
# [2] = test system: E. coli MG1655 FabI mutants; test: MIC of fabimycin-resistant mutants; assay type: cell-based; conditions: Escherichia coli
# Procedure: as §7, §8, §9, §10, §11, §1, §2, §3, §4
# The FabI gene was amplified by PCR. Fabimycin-resistant colonies were picked and diluted in 100 µL sterile, nuclease-free H2O. PCR reactions were then set up by combining 14 µL H2O, 1 µL 20 µM primer mix, 10 µL template (bacteria solution in H2O), and 25 µL MiFi Mix (Bioline). The reaction was performed on a C1000 Thermal Cycler (Bio-Rad) under the following conditions for 35 cycles: initial denature: 95 °C for 3 min; denature 95 °C for 15 s; anneal: 57 °C for 15 s; extend 72 °C for 30 s; final extend: 72 °C for 3 min. A 10 µL portion of PCR reaction mixture was analyzed by agarose gel electrophoresis to confirm the single 1.4-kilobase pair product. PCR products were purified using a GeneJET PCR Purification Kit (Thermo Fischer Scientific). PCR amplicons were submitted to the Core DNA Sequencing Facility at the University of Illinois at Urbana-Champaign for Sanger sequencing with overlapping internal primers. All primers were obtained from Integrated DNA Technologies.
# Primers for sequencing of fabI gene in select pathogens: […]
# Organism Sequence Reference
# (§12) Forward 5’-GGG-GCC-AGC-GTT-TCT-TTT-TC-3‘ Parker, 20203
# (§13) Reverse 5’-AAA-CAT-GGA-GAC-GGT-GCT-GG
# (§14) Forward 5’-GTG-AGA-TCG-GCA-TGA-CAC-AA-3’ Lin, 20179
# (§15) Reverse 5’-CTG-AAG-TCC-GCT-ACC-GTT-AT-3’
# Compound stability in mammalian plasma
# Candidate drugs were incubated with plasma and parent drug levels were monitored at various time points (generally t=0, 10, 20, 30, and 60 minutes) to determine the drug’s half-life in the presence of the chosen system. Each drug is tested in duplicate. Compounds were diluted from 10 mM DMSO stocks to 1 µM in a 100 mM pH 7.4 phosphate buffer and incubated at 37 °C with 0.5 mg/mL of human, rat, or mouse plasma (BioreclamationIVT, Baltimore, MD). Time points were collected at 0 min (after addition of drug), 15 min, 30 min, 60 min, and 120 min following quenching with an equal volume of acetonitrile. The supernatant was collected after centrifugation, and the sample analyzed by LC-MS where the percentage of compound remaining is plotted vs time to determine the drug’s half-life.
# Compound plasma protein binding
# Candidate drugs were incubated with plasma and parent drug levels are monitored after 4 hours to determine the drug’s free concentration in the presence of the plasma proteins. The standard assay involves equilibrium dialysis, in which compound is allowed to equilibrate between a protein-containing compartment from a protein-free compartment. Each
# S. aureus ATCC 29213 = assay type: cell-based, Staphylococcus aureus
# Procedure: as §1, §2
# Glycerol stocks of selected colonies were made, and resistant colonies confirmed by growing on agar plates containing the same concentration of fabimycin that they were generated at. […]
# as §12, §13, §14, §15
# Compound stability in mammalian plasma […]
# Each drug is tested […]
# in duplicate. Compounds were diluted from 10 mM DMSO stocks to 1 µM in a 100 mM pH 7.4 phosphate buffer and incubated at 37 °C with 0.5 mg/mL of human, rat, or mouse plasma (BioreclamationIVT, Baltimore, MD). […]
# Compound plasma protein binding […]
# The standard assay involves equilibrium dialysis, in which compound is allowed to equilibrate between a protein-containing compartment from a protein-free compartment. Each
# [3] = assay type: in vitro ADME
# Procedure: as §1, §2, §3, §4, §5, §6
# Sequence of hERG ion channel (Q12809 whole entry): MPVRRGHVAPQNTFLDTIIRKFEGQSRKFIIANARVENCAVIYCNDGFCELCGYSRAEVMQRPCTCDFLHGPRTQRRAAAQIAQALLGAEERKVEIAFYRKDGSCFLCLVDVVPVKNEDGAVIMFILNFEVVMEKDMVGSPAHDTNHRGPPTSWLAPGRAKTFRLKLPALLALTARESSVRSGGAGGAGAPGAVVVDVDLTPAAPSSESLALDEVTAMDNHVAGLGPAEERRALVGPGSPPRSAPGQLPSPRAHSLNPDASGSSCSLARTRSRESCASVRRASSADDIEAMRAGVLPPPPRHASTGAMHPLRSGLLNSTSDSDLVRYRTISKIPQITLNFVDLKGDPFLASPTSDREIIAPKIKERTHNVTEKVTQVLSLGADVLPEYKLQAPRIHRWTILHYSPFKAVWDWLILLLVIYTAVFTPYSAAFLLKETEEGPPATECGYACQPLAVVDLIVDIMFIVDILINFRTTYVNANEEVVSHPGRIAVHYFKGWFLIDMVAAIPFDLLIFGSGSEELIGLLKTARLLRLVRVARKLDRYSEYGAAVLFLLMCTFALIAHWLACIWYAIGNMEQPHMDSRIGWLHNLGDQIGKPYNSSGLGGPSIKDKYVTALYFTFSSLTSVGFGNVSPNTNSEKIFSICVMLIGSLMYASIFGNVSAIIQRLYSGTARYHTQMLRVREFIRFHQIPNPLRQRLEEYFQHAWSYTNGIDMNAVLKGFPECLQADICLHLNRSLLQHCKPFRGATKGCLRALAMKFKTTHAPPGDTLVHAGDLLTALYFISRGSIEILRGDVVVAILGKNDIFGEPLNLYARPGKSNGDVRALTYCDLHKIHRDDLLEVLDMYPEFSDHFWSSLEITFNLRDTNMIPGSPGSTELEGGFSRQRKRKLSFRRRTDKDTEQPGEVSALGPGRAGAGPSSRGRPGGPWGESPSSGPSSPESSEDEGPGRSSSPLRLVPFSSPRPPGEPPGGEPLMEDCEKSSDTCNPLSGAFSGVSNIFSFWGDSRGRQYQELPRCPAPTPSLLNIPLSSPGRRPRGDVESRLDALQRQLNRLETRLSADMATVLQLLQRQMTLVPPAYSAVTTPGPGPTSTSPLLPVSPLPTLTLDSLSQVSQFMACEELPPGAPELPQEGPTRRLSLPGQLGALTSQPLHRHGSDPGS
compound,measurement,setting,value
Cc1c(CN(C)C(=O)/C=C/c2cnc3c(c2)CC[C@H](N)C(=O)N3)oc2ccccc12 [fabimycin],mutant prevention concentration (MPC),E. coli MG1655,64 µg/mL
same,activity against the hERG ion channel,hERG ion channel,lower activity against the hERG ion channel relative to both Debio-1452 and Debio-1452-NH3
same,MIC50,[1],1 µg/mL
same,MIC90,[1],4 µg/mL
same,MIC,"[2]; MG1655, FabI mutation G148S, plated at 16x MIC (32 μg/mL), colonies 2/5, read-out: MIC of mutants",≥ 128 µg/mL
same,MIC,"[2]; MG1655, read-out: MIC of mutants, FabI mutation G148A, plated at 8x MIC (16 μg/mL), colonies 3/5",32 to 64 µg/mL
same,MIC,"[2]; MG1655, read-out: MIC of mutants, FabI mutation G148A, plated at 16x MIC (32 μg/mL), colonies 3/5",64 µg/mL
same,MIC,"[2]; MG1655, read-out: MIC of mutants, FabI mutation G148S, plated at 8x MIC (16 μg/mL), colonies 1/5",128 µg/mL
same,MIC,"[2]; MG1655, read-out: MIC of mutants, FabI mutation M159T, plated at 8x MIC (16 μg/mL), colonies 1/5",32 µg/mL
same,frequency of resistance,S. aureus ATCC 29213,1.8 × 10^–10 to 5.2 × 10^–10
same,mutant prevention concentration (MPC),S. aureus ATCC 29213,0.125 µg/mL
same,plasma protein binding,[3],lower plasma protein binding relative to Debio-1452
